# Assay results as given in patent US10195258B2, “Tape preparation of WT1 peptide cancer vaccine for transdermal administration” (NITTO DENKO CORPORATION, priority 2013, dated 2019).
# Tested on: antigen-specific cellular immunity (IFN-γ-producing spleen cells)
# Assay: Mouse immunization test 1 (tape preparation), ELISPOT
# Type: in vivo, genetically modified mouse (HLA-A*0201 type MHC)
# Conditions: acid added to WT1 peptide tape preparation (Table 1)
# Experimental: Mouse immunization test was performed with the tape preparations using a model animal for immunological evaluation. Evaluation of the immunity induction level was performed by the ELISPOT method. Specifically, the hair of the back of the mouse was cut. The mouse was kept until it recovered from the skin damage due to the hair cutting. After that, a sample was applied to the back of the mouse for the predetermined time, and then removed. Then, the mouse was kept for predetermined days and the level of the antigen-specific cellular immunity was evaluated. After predetermined days from the application of the sample, the spleen was isolated and a spleen cell suspension was prepared. Spleen cells (3×10^6 cells/well) and the antigen peptide (100 μM) together with the culturing medium were placed into a well of an ELISPOT plate on which an anti-mouse IFN-γ antibody had been immobilized. The plate was cultured for 20 hours under the condition of 37° C. and 5% CO2. The number of the spots representing IFN-γ-producing cells (spot number/3×10^6 cells) was evaluated by the ELISPOT method.
# The amount of administration of the tape preparation was set to 0.7 cm^2 as described above, the number of administrations was (24 hr/week)×once, and extraction of the spleen was carried out 6 days after the administration. The mouse used for the experiment was a genetically modified mouse by which cellular immunity induction caused by HLA-A*0201 type MHC-restricted peptide can be evaluated.
# In Example 8, administration was carried out on skin that was injured with a microcutter (MICRO FEATHER No. 7330G, manufactured by Feather Safety Razor Co., Ltd.).
row,SMILES,Promotion of cellular immunity induction by acid as second cellular immunity induction promoter
1,CCCCCCCCCC(=O)O [decanoic acid],effective
2,CC(C)CCCCCCCCCCCCCCC(=O)O [isostearic acid],particularly effective
3,CC(O)C(=O)O (stereo not drawn) [lactic acid],particularly effective
4,CCCCCCCCCCCC(=O)O [lauric acid],particularly effective
5,CCCCCCCCCCCCCC(=O)O [myristic acid],particularly effective
6,CCCCCCCC(=O)O [octanoic acid],effective
7,CCCCCCCC/C=C\CCCCCCCC(=O)O [oleic acid],particularly effective
8,CCCCCCCCCCCCCCCC(=O)O [palmitic acid],effective
9,CCCCCCCCCCCCCCCCCC(=O)O [stearic acid],effective
